Values quoted from earlier work in patent US20210393650A1, “Designing Treatments for Chemotherapy-Induced and Age-Related Menopausal Symptoms Using Combinations of Natural Products and Prescription Medications” (Tess Ventures, Inc., priority 2018, published 2021).

Columns and labels:
[1] = tested on: humans; conditions: for effect on anxiety: humans, low to moderate doses
[2] = tested on: CB1 receptor; conditions: centrally-mediated, through the CB1 receptor
[3] = tested on: ovariectomized rat
[4] = tested on: postmenopausal women; conditions: human, in vivo

## C=C(C)[C@@H]1CCC(C)=C[C@H]1c1c(O)cc(CCCCC)cc1O [CBD, 2-[(1R,6R)-3-methyl-6-prop-1-en-2-ylcyclohex-2-en-1-yl]-5-pentyl-benzene-1,3-diol]
[1]
  effect on anxiety: anxiolytic effects
[1]; medium to high doses
  effect on insomnia: sedative effect

## CCCCCc1cc(O)c2c(c1)OC(C)(C)C1CCC(C)=CC21 (stereo not shown) [Δ^9-THC, 6,6,9-trimethyl-3-pentyl-6a,7,8,10a-tetrahydrobenzo[c]chromen-1-ol]
[2]
  effect on body temperature: hypothermic effect
[1]
  effect on anxiety: anxiolytic effects
[1]; insomnia
  effect on sleep quality: enhance short-term sleep quality

## COc1cc(/C=C/C(=O)CC(=O)/C=C/c2ccc(O)c(OC)c2)ccc1O [curcumin]
[3]
  tail skin temperature: significant suppression

## OCCOc1ccc(/C(=C(/CCCl)c2ccccc2)c2ccccc2)cc1 [ospemifene, Z-2-[4-(4-chloro-1,2-diphenyl-but-1-enyl)-phenoxy]ethanol]
[4]
  treatment of VVA symptoms versus local estrogen: equivalent to or better than local estrogen
